In article PMC5185321 (Journal of medicinal chemistry, 2015):
One block for each compound: values may come before it.

What was measured:
[1] = test system: ALDH2; details: read-out: ALDH2 inhibition; cited from earlier work
[2] = test system: cocaine-seeking behavior; details: cited from earlier work
[3] = target: T1, hALDH1A1 (Homo sapiens, UniProt P00352); assay: Primary qHTS against hALDH1A1; type: biochemical
T1 sequence (P00352 1-501): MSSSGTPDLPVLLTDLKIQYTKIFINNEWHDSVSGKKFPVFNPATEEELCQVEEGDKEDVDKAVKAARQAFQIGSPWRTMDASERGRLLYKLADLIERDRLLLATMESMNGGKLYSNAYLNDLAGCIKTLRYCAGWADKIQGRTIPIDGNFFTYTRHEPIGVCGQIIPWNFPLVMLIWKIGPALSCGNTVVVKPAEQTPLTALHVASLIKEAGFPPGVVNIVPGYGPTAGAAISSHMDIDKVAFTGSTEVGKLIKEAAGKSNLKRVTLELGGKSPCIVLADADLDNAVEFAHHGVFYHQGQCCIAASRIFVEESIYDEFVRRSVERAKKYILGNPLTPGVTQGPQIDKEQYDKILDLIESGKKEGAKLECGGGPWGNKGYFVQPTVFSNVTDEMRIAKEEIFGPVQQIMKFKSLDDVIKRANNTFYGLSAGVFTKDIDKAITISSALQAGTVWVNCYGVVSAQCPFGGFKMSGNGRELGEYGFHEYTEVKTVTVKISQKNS

[4] = target: T2, human ALDH2 (Homo sapiens, UniProt P05091); assay: ALDH enzymatic assay, ALDH2; type: biochemical
T2 sequence (P05091 18-517): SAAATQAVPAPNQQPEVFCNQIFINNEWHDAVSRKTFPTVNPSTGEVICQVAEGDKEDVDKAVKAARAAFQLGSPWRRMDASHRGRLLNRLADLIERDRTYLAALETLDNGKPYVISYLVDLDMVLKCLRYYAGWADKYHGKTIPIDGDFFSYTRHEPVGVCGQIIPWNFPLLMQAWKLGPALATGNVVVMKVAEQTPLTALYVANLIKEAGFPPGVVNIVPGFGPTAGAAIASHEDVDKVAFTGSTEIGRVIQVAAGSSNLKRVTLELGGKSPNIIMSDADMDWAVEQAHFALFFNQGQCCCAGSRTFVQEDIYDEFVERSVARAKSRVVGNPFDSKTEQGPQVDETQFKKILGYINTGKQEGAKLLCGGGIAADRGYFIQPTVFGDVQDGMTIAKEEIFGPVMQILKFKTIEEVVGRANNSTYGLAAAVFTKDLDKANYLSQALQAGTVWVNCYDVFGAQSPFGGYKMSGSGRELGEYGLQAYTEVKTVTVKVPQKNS

[5] = target: T1, hALDH1A1; assay: biochemical
[6] = physchem; details: aqueous medium at pH 7.4, pH 7.4, aqueous buffer, kinetic from dmso stock
[7] = High-throughput RLM stability; type: in vitro ADME; details: rat, rat liver microsomes, pH 7.4
[8] = target: T3, human ALDH1B1 (Homo sapiens, UniProt P30837); assay: biochemical
T3 sequence (P30837 18-517): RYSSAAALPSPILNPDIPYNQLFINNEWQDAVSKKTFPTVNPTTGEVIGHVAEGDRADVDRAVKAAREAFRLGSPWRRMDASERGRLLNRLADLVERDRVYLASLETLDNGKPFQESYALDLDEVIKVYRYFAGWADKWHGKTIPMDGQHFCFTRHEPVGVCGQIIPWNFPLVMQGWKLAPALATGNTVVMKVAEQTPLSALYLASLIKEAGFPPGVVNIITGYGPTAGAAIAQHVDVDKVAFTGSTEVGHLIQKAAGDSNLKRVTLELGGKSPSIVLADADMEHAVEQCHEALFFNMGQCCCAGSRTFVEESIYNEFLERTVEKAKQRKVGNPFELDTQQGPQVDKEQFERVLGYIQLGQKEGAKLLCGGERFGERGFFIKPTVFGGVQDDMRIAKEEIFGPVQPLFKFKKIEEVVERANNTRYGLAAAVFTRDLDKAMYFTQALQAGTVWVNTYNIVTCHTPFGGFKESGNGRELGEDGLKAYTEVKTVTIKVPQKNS

[9] = CD1 mouse liver microsomal stability; type: in vitro ADME; details: mouse liver microsomes
[10] = Multipoint rat liver microsomal stability; type: in vitro ADME
[11] = Pharmacokinetics in CD1 mice; type: in vivo; details: CD1, mouse
[12] = Caco-2 permeability; type: in vitro ADME; details: human
[13] = Plasma protein binding; type: in vitro ADME
[14] = test system: more than 450 human kinases; assay: DiscoveRx KINOMEscan off-target kinase profiling; type: binding; details: 10 µM, hit = inhibition of ≥55%
[15] = microsomes
[16] = In vitro stability in CD1 mouse plasma; type: in vitro ADME
[17] = test system: 168 GPCRs covering 60 receptor families; assay: gpcrMAX panel profiling; type: cell-based; details: agonist and antagonist mode

Structure (SMILES): CS(=O)(=O)Nc1ccc(-c2coc3cc(OCc4cccc(C(=O)O)c4)ccc3c2=O)cc1 [Compound 1]
IC50 [1]: 0.029 µM | reduction of cocaine-seeking behavior [2]: demonstrated activity in the reduction of cocaine-seeking behavior

IC50 [3]: 0.084 µM | IC50 [4]: 2.4 µM | IC50 [5]: 0.04 ± 0.005 µM | solubility [6]: > 62 µg/mL | half-life at 1 µM [7]: 5 min | IC50 [8]: > 57 µM
Structure (SMILES): CCOC(=O)N1CCN(Cc2nc3c(c(=O)n(C)c(=O)n3C)n2Cc2cccc(C)c2)CC1 [Compound 5, ethyl 4-((1,3-dimethyl-7-(3-methylbenzyl)-2,6-dioxo-2,3,6,7-tetrahydro-1H-purin-8-yl)methyl)piperazine-1-carboxylate]

IC50 [5]: 0.57 ± 0.156 µM | half-life at 1 µM [7]: 2 min
Structure (SMILES): CCOC(=O)N1CCN(c2nc3c(c(=O)n(C)c(=O)n3C)n2Cc2cccc(C)c2)CC1 [Compound 11, Ethyl 4-(1,3-Dimethyl-7-(3-methylbenzyl)-2,6-dioxo-2,3,6,7-tetrahydro-1H-purin-8-yl)piperazine-1-carboxylate]

IC50 [4]: 6.1 µM | IC50 [5]: 0.057 µM | solubility [6]: < 1 µg/mL | half-life at 1 µM [7]: 8 min | IC50 [8]: > 57 µM
Structure (SMILES): CNC(=O)c1ccc(Oc2nc3c(c(=O)n(C)c(=O)n3C)n2Cc2cccc(C)c2)cc1 [Compound 12, 4-((1,3-dimethyl-7-(3-methylbenzyl)-2,6-dioxo-2,3,6,7-tetrahydro-1H-purin-8-yl)oxy)-N-methylbenzamide]

IC50 [5]: 13.7 ± 4.9 µM | half-life at 1 µM [7]: 21 min
Structure (SMILES): Cc1cccc(Cn2c(OC3CCNCC3)nc3c2c(=O)n(C)c(=O)n3C)c1 [Compound 14, 1,3-dimethyl-7-(3-methylbenzyl)-8-(piperidin-4-yloxy)-1H-purine-2,6(3H,7H)-dione]

IC50 [5]: 19.2 ± 3.3 µM | half-life at 1 µM [7]: 1 min
Structure (SMILES): Cc1cccc(Cn2c(OC3CCN(c4nccc(C)n4)CC3)nc3c2c(=O)n(C)c(=O)n3C)c1 [Compound 19, 1,3-dimethyl-7-(3-methylbenzyl)-8-((1-(4-methylpyrimidin-2-yl)-piperidin-4-yl)oxy)-1H-purine-2,6(3H,7H)-dione]

IC50 [5]: 0.214 ± 0.028 µM | half-life at 1 µM [7]: > 30 min
Structure (SMILES): Cn1c(=O)c2c(nc(OC3CCN(C(=O)C4CC4)CC3)n2Cc2ccccc2)n(C)c1=O [Compound 21, 7-benzyl-8-((1-(cyclopropanecarbonyl)piperidin-4-yl)oxy)-1,3-dimethyl-1H-purine-2,6(3H,7H)-dione]

IC50 [5]: 25.1 ± 5.9 µM | half-life at 1 µM [7]: > 30 min
Structure (SMILES): Cn1c(=O)c2[nH]c(OC3CCN(C(=O)C4CC4)CC3)nc2n(C)c1=O [Compound 22, 8-((1-(cyclopropanecarbonyl)piperidin-4-yl)oxy)-1,3-dimethyl-1H-purine-2,6(3H,7H)-dione]

IC50 [4]: 15.3 µM | IC50 [5]: 0.084 ± 0.014 µM | half-life at 1 µM [7]: 4 min | IC50 [8]: > 57 µM
Structure (SMILES): Cc1cccc(Cn2c(OC3CCN(C(=O)C4CC4)CC3)nc3c2c(=O)n(C)c(=O)n3C)c1 [Compound 34, 8-((1-(cyclopropanecarbonyl)piperidin-4-yl)oxy)-1,3-dimethyl-7-(3-methylbenzyl)-1H-purine-2,6(3H,7H)-dione]

IC50 [5]: 0.629 ± 0.179 µM | half-life at 1 µM [7]: 14 min
Structure (SMILES): Cn1c(=O)c2c(nc(OC3CCN(C(=O)C4CC4)CC3)n2CCc2ccccc2)n(C)c1=O [Compound 39, 8-((1-(cyclopropanecarbonyl)piperidin-4-yl)oxy)-1,3-dimethyl-7-phenethyl-1H-purine-2,6(3H,7H)-dione]

IC50 [5]: 0.03 ± 0.012 µM | half-life at 1 µM [7]: 1 min
Structure (SMILES): Cn1c(=O)c2c(nc(OC3CCN(C(=O)C4CC4)CC3)n2CCC2CCCCC2)n(C)c1=O [Compound 54, 7-(2-cyclohexylethyl)-8-((1-(cyclopropanecarbonyl)piperidin-4-yl)oxy)-1,3-dimethyl-1H-purine-2,6(3H,7H)-dione]

half-life [9]: 17 min | multipoint rat liver microsomal stability [10]: 84 min | AUC(0-t) ([11]; brain, po, 10 mg/kg): 261 ng·h/mL | Cmax ([11]; brain, po, 10 mg/kg): 1130 ng/mL | half-life ([11]; brain, po, 10 mg/kg): 24 min | AUC(0-t) ([11]; liver, po, 10 mg/kg): 1880 ng·h/mL | Cmax ([11]; liver, po, 10 mg/kg): 2690 ng/mL | half-life ([11]; liver, po, 10 mg/kg): 24 min | half-life ([11]; plasma, intravenous, oral, intraperitoneal): < 60 min | AUC(0-t) ([11]; plasma, ip, 30 mg/kg): 5670 ng·h/mL | Cmax ([11]; plasma, ip, 30 mg/kg): 8080 ng/mL | bioavailability ([11]; plasma, ip, 30 mg/kg): 100% | half-life ([11]; plasma, ip, 30 mg/kg): 42 min | AUC(0-t) ([11]; plasma, iv, 2 mg/kg): 332 ng·h/mL | C0 ([11]; plasma, iv, 2 mg/kg): 2070 ng/mL | Vd ([11]; plasma, iv, 2 mg/kg): 1.8 L/kg | clearance ([11]; plasma, iv, 2 mg/kg): 98 mL/min/kg | half-life ([11]; plasma, iv, 2 mg/kg): 30 min | AUC(0-t) ([11]; plasma, po, 10 mg/kg): 484 ng·h/mL | Cmax ([11]; plasma, po, 10 mg/kg): 696 ng/mL | bioavailability ([11]; plasma, po, 10 mg/kg): 29% | half-life ([11]; plasma, po, 10 mg/kg): 24 min | Papp A→B [12]: 19.3 ×10⁻⁶ cm/s | Papp B→A [12]: 19.6 ×10⁻⁶ cm/s | plasma protein binding [13]: 68.6 % bound | half-life at 1 µM [7]: > 30 min | off-target kinase activity (KINOMEscan) [14]: no significant hits | human liver microsomal stability (HLM) [15]: > 120 min | in vitro stability in CD1 mouse plasma [16]: > 60 min | IC50 [8]: > 57 µM
Structure (SMILES): CC(C)CCn1c(CN2CCN(C(=O)C3CC3)CC2)nc2c1c(=O)n(C)c(=O)n2C [Compound 64, 8-((4-(cyclopropanecarbonyl)piperazin-1-yl)methyl)-7-isopentyl-1,3-dimethyl-1H-purine-2,6(3H,7H)-dione]
gpcrMAX off-target activity [17]: very little activity in either agonist or antagonist mode
